# Read-outs that look alike come from different tables or passages of the source. Starred links: 1 amine or outer side, 2 acyl side, 3 side chain; linkers in the order of their positions; H or OH if unused. Positions of bridges follow the written chain, without caps; N, C: chain ends. Non-standard residues stand in square brackets, D forms with d. Residues, ends and D or L forms follow the SMILES beside them. *: point of attachment. Leu(3R-OH,Nα-propionyl) = CCC(=O)N[C@H](C(=O)*)[C@H](O)C(C)C; X1 = CC(C)[C@@H](O[*:3])[C@H](N[*:1])C(=O)[*:2]; NMeT = CN[C@H](C(=O)O)[C@@H](C)O; dPhLac = O=C(O)[C@H](O)Cc1ccccc1; NMeA = CN[C@@H](C)C(=O)O; NMeDha = C=C(NC)C(=O)O
# Columns and labels:
# [1] = test system: 92.1 uveal melanoma cell line (heterozygous GNAQ Q209L); test: Cell proliferation assay (resazurin cell viability), 92.1 cell line; assay type: cell-based
# How it was run: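 Cells seeded the night before, then treated 96 h at 37 °C in RPMI/10% FCS (A375 in DMEM/10% FCS); compounds 260 nM to 0.036 nM in ⅓ dilution steps, one compound 10000 nM to 1.52 nM. Viability read by resazurin addition after 96 h.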
# [2] = test system: Gαq-mutant uveal melanoma xenografts; conditions: systemically administered; cited from earlier work
# [3] = Cell-based transwell assay with MDCK-low efflux monolayers (passive permeability); assay type: in vitro ADME; conditions: dog; MDCK-LE monolayers
# Method: (§1) Cell-based transwell assays with MDCK-low efflux monolayers: Compounds (A1) and 2-15 were tested in MDCK cell sub-clones with low effluxt ransporter activity (MDCK-LE) in order to determine their passive permeability. The incubations were performed at a contract research organization as described previously.
# MDCK-LE monolayers = test: as above; assay type: in vitro ADME; conditions: MDCK-LE monolayers
# Method: as §1
# [4] = Plasma incubation of compound (A1), mouse (CD-1) plasma; assay type: in vitro ADME
# Method: (§2) Plasma incubations and sample preparation: Compound (A1) was spiked at 5.00 μg/mL in PBS and pooled mixed gender mouse (CD-1), cynomolgus monkey and human plasma. Samples were incubated on a Thermomixer (Eppendorf) at 37° C. while shaking at 650 rpm. Aliquots of 50 μL (n=3) were drawn from each incubation tube following 0, 0.5, 1, 2, 4, 8 and 24 h of incubation. 50 μL of sample was quenched with 200 μL of acetonitrile, containing both generic internal standards, glybenclamide and warfarin, at 62.5 ng/mL. Samples were briefly vortexed and centrifuged for 20 min at 4000 rpm and 4° C. 200 μL of the supernatant was transferred into a clean 800 μL 96-well sample collection plate.
# (§3) Quantification by LC-MS/MS: LC-MS/MS analysis was conducted with a Shimadzu Nexera UPLC coupled to AB Sciex QTRAP 6500 using the SRM acquisition mode (3 μL injected). Samples were analyzed using a ACE 3° C.18-PFP (3 μM, 2.1×50 mm column) at a column temperature of 65° C. […] Quantification of compound (A1) and 5 was performed by MS-MRM (electrospray in positive mode, ion spray voltage: 5000 V, source temperature: 500° C., curtain gas: 25 psig, nebulizer gas: 60 psig, turbo ion spray gas: 40 psig, mass range: low, resolution Q1/Q3: unit, collision gas: medium, dwell time: 12 msec). […] Peak integration and quantification was conducted with the AB Sciex Analyst software (v.1.7) using the Analyst Classic algorithm.
# [5] = Plasma incubation of compound (A1), cynomolgus monkey plasma; assay type: in vitro ADME
# Method: as §2, §3
# [6] = EPSA determination by supercritical fluid chromatography; assay type: physicochemical; conditions: supercritical fluid chromatography, Chirex 3014 column; modified EPSA method, SFC; read-out: EPSA
# How it was run: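 SFC on a Chirex 3014 column ([…], 3×100 mm, 100 Å). Gradient runs linearly from 5% to 60% methanol containing 20 mM ammonium formate, in scCO2, over 4.5 min.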
compound,measurement,setting,value
"C=C1C(=O)N[C@@H](C)C(=O)N(C)[C@@H](C)C(=O)N[C@@H]([C@H](OC(=O)[C@@H](NC(=O)CC)[C@H](O)C(C)C)C(C)C)C(=O)N(C)[C@@H]([C@@H](C)OC)C(=O)O[C@H](C(C)C)[C@H](NC(C)=O)C(=O)O[C@H](Cc2ccccc2)C(=O)N1C [Compound (A1), FR900359] (Ac-[X1][dPhLac][NMeDha]A[NMeA][X1](Leu(3R-OH,Nα-propionyl))[NMeT](Me); ester 1-C)",GI50,"[1]; 92.1 (GNAQ Q209L), 96 hours of treatment, read-out: GI50 by cell line, 92.1",0.6 nM
same,GI50,"[1]; 92.1 cell line, average of Rep. 1 and 2, read-out: GI50 92.1 Average",0.6 nM
same,GI50,"[1]; 92.1 cell line, replicate 1, read-out: GI50 92.1 Rep. 1",0.46 nM
same,GI50,"[1]; 92.1 cell line, replicate 2, read-out: GI50 92.1 Rep. 2",0.69 nM
same,tolerability of the active doses,[2],well tolerated
same,Papp A→B,[3],4.06 ×10⁻⁶ cm/s
same,recovery,[3],65%
same,% Fraction absorbed,MDCK-LE monolayers,59.7%
same,plasma stability / metabolite formation compared with human plasma,[4],Very similar results
same,plasma stability / metabolite formation compared with human plasma,[5],Very similar results
same,EPSA,[6],94 A^2

# — patent US20240252668A1, “ANTIBODY DRUG CONJUGATES AND METHODS FOR MAKING THEREOF” (Novartis AG, priority 2021, published 2024)
